The values below come from patent publication US8232274B2, “Pyridazinone derivatives useful as glucan synthase inhibitors” (Albany Molecular Research, Inc., priority 2007, dated 2012).

Test [1] has as its target T1, glucan synthase (Candida albicans, UniProt O13428).
T1 construct: glucan synthase sources (2 μL permeabilized PM503 cells, or 3 μL membrane preparations from either PM503, BWP17, or ND158); endogenous in cells; host or cells: C. albicans strain BWP17, 100,000 g membrane fraction
Briefly: β(1,3) glucan synthase assay, C. albicans BWP17 membrane preparation (IC50). It is filed as biochemical. As to conditions: in vitro fungal enzyme activity assay, read-out: IC50 (μg/mL) Candida albicans (converted). As for the experimental part:
(§1) β(1,3) Glucan Synthase Assay:
(§2) 2. Preparation of Membrane Fraction of Yeast Cells
(§3) The protocol was modified from Douglas et al. (Journal of Bacteriology, 176, 5686-5696, 1994). For the preparation of S. cerevisiae and C. albicans membrane fractions, 1 liter of YPD supplemented with 0.02 mg/mL adenine and 0.08 mg/mL uracil was inoculated with 10 mL starter culture of PM503 (OD600=4) or the C. albicans strain BWP17 (OD600=12) in the same medium and grown at 30° C. until OD600 reached about 1. A. fumigatus (stain ND158) membranes were prepared by first preparing a spore suspension from agar slants by adding 6 mL of sterile saline, 0.1% Tween-20 solution to each slant, and resuspending by pipetting and scraping. The spore suspensions were used to inoculate two 200 mL flasks containing Sabouraud dextrose broth media. Cultures were incubated at 37° C., 250 rpm for ˜8 hrs. All cells, S. cerevisiae, C. albicans or A. fumigatus were harvested by centrifugation at 5,300 g at 4° C. for 40 minutes. After washing with 100 mL of breakage buffer (0.1 M KPi, pH 7.0, 1 mM EDTA, 1 mM DTT), the cell pellet was resuspended in 50 ml ice-cold breakage buffer. The mixture was transferred to a bead-beater chamber packed in ice (BioSpec Products, Bartlesville, Okla.). To each 50 mL sample was added 50 g of acid-washed glass beads ([…], Sigma). Cells were disrupted using 12×20 second pulses with 2 min-cooling intervals. Cell debris was removed by centrifugation at 3,000 g for 20 minutes at 4° C., and the supernatant was collected and centrifuged at 100,000 g for 1 hour at 4° C. to pellet the membrane fraction. The pellet was resuspended in 5 mL of ice-cold breakage buffer containing 25% glycerol, homogenized with a Dounce tissue homogenizer and stored at −80° C. in small aliquots.
(§4) 3. Glucan Synthase Assay and Compound Screening
The assay was performed according to Mo et at (Journal of Biological Chemistry, 269, 31267-31274, 1994) and Taft et al. (The Journal of Antibiotics, 47, 1001-1009, 1994), in a 96-well Optiplate (PerkinElmer). To each well was added 3 μL 10× compound stock (in 100% DMSO), or 3 μL of 30 μg/mL caspofungin in 100% DMSO (as positive control), or 3 μL 100% DMSO (as negative control), followed by the addition of appropriate amount of glucan synthase sources (2 μL permeabilized PM503 cells, or 3 μL membrane preparations from either PM503, BWP17, or ND158). The reaction was initiated by adding 25 μL reaction buffer (0.6 mM UDP-Glucose 0.6 nCi [U-^14C]DUP-Glucose (327 mCi/mmol, Amersham Bioscience), 20 μM GTP-γ-S, 25 mM NaF, 7.5 mg/mL BSA, 8% glycerol in 75 mM Tris-HCl, pH 7.5). The plate was incubated on a shaker for 1.5 hour at room temperature before being quenched with 250 μL 1% TCA (Trichloroacetic Acid). The quenched reaction was mixed by pipetting, and immediately transferred to a 96-well filter plate (Glass fiber B on 0.65 μm hydrophilic durapore membrane, Millipore) pre-wetted with wash buffer (5% TCA, 60 mM NaPPi). The glucan product was retained on the filter membrane by applying vacuum to the plate using a MultiScreen Resist Vacuum Manifold (Millipore). The filter plate was further washed 4 times with 200 μL wash buffer. The plate was dried at 50° C. for 30 minutes. 100 μL of Microscint-0 (PerkinElmer) was added to each well, and plate was counted in a TopCount NXT plate reader (PerkinElmer).
Dose-response curves were plotted from inhibition data generated. IC50 was determined by fitting the CPM versus the Concentration of the test compound plot with the following equation (4-parameter logistic model, ID Business Solutions XLfit 4.2).

Test [2] deals with T2, glucan synthase (Saccharomyces cerevisiae, UniProt P38631).
T2 construct: glucan synthase sources (2 μL permeabilized PM503 cells, or 3 μL membrane preparations from either PM503, BWP17, or ND158); endogenous in cells; host or cells: S. cerevisiae strain PM503, permeabilized cells or 100,000 g membrane fraction
Briefly: β(1,3) glucan synthase assay, S. cerevisiae PM503 permeabilized cells or membrane preparation (IC50). It is filed as biochemical. The method, then: as §1
1. Preparation of Permeabilized Saccharomyces cerevisiae Cells.
Permeabilization of yeast cells was performed according to Crotti et al. (Analytical Biochemistry, 292, 8-16, 2001) with some modifications. A 10 ml-starter culture of the S. cerevisiae strain in YPD medium (1% yeast extract, 2% bacto-peptone, 2% dextrose) with OD600=3-4 was used to inoculate 1 liter of YPD. The culture was grown at 30° C. until […]. Cells were collected by centrifugation (5,300 g for 15 min at 4° C.) and resuspended in buffer (40 mM EDTA, 100 mM β-mercaptoethanol) at 1 g of cell pellet/3.5 ml buffer. The cell suspension was shaken for 30 min at 30° C., followed by centrifugation at 12,000 g for 10 min at 4° C. The cell pellet was washed with 5 ml 0.8 M sorbitol and resuspended in 6.8 ml of 2.9 mM citric acid, 11.3 mM dibasic sodium phosphate, 1 mM EDTA, 0.8 M sorbitol, with constant shaking at 30)C for 30 min. After centrifugation at 12,000 g for […] at 4° C., the pellet was resuspended in 31.3 ml 50 mM Tris-HCl, pH 7.0, and incubated on ice for 5 min. The mixture was then centrifuged at 12,000 g for 10 min at 4 AC, and the pellet was resuspended in 1 ml of 50 mM Tris-HCl and 33% glycerol, pH 7.5. The permeabilized cell preparation was stored at […] in aliquots.
as §2, §3, §4
The assay was performed according to Mo et at (Journal of Biological Chemistry, 269, 31267-31274, 1994) and Taft et al. (The Journal of Antibiotics, 47, 1001-1009, 1994), in a 96-well Optiplate (PerkinElmer). To each well was added 3 μL 10× compound stock (in 100% DMSO), or 3 μL of 30 μg/mL caspofungin in 100% DMSO (as positive control), or 3 μL 100% DMSO (as negative control), followed by the addition of appropriate amount of glucan synthase sources (2 μL permeabilized PM503 cells, or 3 μL membrane preparations from either PM503, BWP17, or ND158). The reaction was initiated by adding 25 μL reaction buffer (0.6 mM UDP-Glucose 0.6 nCi [U-^14C]DUP-Glucose (327 mCi/mmol, Amersham Bioscience), 20 μM GTP-γ-S, 25 mM NaF, 7.5 mg/mL BSA, 8% glycerol in 75 mM Tris-HCl, pH 7.5). […]

Each structure is given as a SMILES string.

T2 sequence (P06780 1-206): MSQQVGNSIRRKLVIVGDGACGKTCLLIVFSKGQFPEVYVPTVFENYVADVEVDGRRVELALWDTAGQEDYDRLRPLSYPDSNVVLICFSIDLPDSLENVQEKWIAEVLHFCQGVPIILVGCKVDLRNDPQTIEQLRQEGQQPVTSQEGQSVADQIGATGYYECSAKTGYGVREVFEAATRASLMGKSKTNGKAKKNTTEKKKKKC
T2 sequence (P38631 whole entry): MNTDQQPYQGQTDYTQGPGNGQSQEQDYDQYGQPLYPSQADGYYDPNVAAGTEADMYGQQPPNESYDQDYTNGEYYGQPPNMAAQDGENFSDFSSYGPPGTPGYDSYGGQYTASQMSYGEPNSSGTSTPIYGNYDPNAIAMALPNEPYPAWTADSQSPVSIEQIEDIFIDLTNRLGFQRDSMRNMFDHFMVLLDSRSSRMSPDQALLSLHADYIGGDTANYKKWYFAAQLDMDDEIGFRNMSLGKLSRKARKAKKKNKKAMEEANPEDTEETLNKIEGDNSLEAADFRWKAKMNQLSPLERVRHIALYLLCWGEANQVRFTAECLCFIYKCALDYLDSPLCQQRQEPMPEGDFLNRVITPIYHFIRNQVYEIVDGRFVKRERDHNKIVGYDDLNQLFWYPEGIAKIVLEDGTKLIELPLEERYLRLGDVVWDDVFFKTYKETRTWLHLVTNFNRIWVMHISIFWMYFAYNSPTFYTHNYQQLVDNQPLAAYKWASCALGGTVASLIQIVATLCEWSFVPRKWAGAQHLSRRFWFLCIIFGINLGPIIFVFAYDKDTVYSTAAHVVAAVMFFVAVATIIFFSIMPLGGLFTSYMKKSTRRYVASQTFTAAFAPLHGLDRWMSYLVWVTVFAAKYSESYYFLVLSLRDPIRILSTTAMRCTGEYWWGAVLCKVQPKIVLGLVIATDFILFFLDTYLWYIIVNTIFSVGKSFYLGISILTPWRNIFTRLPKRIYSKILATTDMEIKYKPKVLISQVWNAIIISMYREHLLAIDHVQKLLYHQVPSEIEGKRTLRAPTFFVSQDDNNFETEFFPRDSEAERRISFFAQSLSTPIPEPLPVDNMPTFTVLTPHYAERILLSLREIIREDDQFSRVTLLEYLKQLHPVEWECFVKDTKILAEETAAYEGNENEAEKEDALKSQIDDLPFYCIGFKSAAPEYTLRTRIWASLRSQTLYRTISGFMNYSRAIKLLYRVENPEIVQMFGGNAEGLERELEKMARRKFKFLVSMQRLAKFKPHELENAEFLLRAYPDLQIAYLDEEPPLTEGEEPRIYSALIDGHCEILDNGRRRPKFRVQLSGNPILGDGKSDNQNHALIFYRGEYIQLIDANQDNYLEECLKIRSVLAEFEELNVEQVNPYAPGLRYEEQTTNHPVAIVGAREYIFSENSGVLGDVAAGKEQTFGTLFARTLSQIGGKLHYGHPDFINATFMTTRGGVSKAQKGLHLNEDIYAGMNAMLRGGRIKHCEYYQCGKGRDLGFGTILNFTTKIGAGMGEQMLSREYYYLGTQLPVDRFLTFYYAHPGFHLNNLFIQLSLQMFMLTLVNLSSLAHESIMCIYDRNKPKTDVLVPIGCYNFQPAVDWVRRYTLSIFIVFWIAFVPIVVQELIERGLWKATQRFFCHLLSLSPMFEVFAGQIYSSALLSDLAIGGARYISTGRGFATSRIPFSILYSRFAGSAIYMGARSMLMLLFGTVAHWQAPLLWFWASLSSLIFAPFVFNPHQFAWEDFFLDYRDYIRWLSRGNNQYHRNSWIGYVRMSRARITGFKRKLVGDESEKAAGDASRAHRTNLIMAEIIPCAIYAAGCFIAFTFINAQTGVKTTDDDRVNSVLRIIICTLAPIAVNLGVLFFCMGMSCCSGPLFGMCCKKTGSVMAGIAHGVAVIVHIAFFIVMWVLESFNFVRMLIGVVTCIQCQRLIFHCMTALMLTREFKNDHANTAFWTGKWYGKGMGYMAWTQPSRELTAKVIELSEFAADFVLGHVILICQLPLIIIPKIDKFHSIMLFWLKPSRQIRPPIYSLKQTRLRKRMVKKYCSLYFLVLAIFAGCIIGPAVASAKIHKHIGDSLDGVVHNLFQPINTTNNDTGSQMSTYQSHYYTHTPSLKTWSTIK
T1 sequence (O13428 1-1897): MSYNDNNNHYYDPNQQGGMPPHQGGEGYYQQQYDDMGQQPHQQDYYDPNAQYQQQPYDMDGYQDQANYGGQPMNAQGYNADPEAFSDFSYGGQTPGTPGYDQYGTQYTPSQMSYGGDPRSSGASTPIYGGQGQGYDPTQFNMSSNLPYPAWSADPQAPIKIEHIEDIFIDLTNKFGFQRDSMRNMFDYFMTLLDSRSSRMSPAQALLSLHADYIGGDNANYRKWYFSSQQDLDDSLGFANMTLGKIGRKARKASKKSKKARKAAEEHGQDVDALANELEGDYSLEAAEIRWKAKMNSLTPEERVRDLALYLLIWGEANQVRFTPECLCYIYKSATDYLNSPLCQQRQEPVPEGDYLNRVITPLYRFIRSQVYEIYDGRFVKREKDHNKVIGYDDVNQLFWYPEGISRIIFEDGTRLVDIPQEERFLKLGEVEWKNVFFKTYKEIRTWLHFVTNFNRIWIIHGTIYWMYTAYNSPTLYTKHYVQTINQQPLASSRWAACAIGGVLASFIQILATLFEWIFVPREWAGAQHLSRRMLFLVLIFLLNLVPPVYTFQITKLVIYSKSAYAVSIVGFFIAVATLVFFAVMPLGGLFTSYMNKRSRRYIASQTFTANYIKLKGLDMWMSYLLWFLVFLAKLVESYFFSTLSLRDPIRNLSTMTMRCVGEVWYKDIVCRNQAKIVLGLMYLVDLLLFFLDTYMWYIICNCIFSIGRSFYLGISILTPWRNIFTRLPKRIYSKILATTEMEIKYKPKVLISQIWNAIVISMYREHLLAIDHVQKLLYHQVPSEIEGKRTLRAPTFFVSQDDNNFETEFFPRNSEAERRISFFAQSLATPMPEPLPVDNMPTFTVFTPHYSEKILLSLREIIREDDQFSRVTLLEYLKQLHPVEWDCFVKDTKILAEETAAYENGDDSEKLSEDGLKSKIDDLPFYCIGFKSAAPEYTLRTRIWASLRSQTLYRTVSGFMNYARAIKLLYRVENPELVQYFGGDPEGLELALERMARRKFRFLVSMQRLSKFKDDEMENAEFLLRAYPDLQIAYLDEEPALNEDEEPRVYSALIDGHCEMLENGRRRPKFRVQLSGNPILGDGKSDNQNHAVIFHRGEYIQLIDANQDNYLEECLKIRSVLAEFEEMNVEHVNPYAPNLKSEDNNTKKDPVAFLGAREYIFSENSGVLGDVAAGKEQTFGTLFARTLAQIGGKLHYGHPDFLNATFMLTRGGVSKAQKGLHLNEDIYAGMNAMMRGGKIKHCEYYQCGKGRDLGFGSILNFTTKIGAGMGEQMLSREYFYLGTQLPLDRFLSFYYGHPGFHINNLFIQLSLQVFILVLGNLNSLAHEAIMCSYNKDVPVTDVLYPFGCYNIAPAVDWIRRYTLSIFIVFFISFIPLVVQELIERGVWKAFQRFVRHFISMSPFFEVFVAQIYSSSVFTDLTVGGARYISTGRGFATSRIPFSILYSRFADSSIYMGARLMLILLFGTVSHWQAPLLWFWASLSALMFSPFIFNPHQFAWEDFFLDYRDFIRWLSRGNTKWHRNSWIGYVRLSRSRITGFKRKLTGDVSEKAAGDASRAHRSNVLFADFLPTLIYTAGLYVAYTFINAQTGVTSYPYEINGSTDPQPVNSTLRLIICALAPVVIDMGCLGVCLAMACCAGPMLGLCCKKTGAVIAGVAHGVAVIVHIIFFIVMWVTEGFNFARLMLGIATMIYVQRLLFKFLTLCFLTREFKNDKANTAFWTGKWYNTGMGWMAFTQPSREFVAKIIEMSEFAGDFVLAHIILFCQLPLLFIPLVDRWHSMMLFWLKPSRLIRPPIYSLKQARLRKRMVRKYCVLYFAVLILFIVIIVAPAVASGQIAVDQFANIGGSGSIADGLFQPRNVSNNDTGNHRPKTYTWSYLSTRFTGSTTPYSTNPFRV
T1 sequence (O42825 1-195 partner limits assumed): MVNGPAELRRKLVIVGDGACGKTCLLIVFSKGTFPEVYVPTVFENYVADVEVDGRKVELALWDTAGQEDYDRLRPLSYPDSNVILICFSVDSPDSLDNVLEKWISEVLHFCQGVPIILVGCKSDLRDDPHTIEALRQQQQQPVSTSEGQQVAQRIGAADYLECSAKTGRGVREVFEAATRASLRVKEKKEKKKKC

In the case of `N[C@@H](Cc1ccc(Cl)cc1)C(=O)N1CCN(c2cnn(-c3ccccc3)c(=O)c2Sc2ccc(F)cc2)CC1` [1Z], the IC50 in test [1] was 17700 nM.

For the molecule `CCCCCCCSc1c(N2CCN(S(=O)(=O)Cc3ccccc3)CC2)cnn(-c2ccccc2)c1=O` [7Z], the figures for the IC50 in test [2] and in test [1] were 629 nM and 2030 nM, respectively.

On to `CCCCCCSc1c(N2CCN(S(C)(=O)=O)CC2)cnn(-c2cc(F)cc(F)c2)c1=O` [11Z], for which the IC50 was 2470 nM in test [2] and 12700 nM in test [1].

Turning to `CC(C)S(=O)(=O)N1CCN(c2cnn(-c3cc(F)cc(F)c3)c(=O)c2Sc2ccccc2)CC1` [19Z], the IC50 in test [2] was 160 nM; in test [1], 3360 nM.

As to `O=c1c(N2CCOCC2)c(N2CCN(S(=O)(=O)Cc3ccccc3)CC2)cnn1Cc1c(F)cccc1Cl` [30Z], the IC50 in test [2] is 712 nM; in test [1], 16000 nM.

On to `O=c1c(Nc2ccc(F)cc2)c(N2CCN(S(=O)(=O)Cc3ccccc3)CC2)cnn1-c1cccc(Cl)c1` [47Z], for which the values for the IC50 in test [2] and in test [1] were 45.1 nM and 415 nM, respectively.

In the case of `O=c1c(N2CCCCC2)c(N2CCN(S(=O)(=O)Cc3ccccc3)CC2)cnn1-c1ccc(F)cc1` [61Z], the IC50 in test [2] is 625 nM; in test [1], 2540 nM.

With `N#Cc1cccc(-c2c(N3CCN(S(=O)(=O)Cc4ccccc4)CC3)cnn(-c3cc(F)cc(F)c3)c2=O)c1` [82Z], the figures for the IC50 in test [2] and in test [1] were 87.7 nM and 822 nM, respectively.

In the case of `O=c1c(-c2ccc(C3CCCCC3)cc2)c(N2CCN(S(=O)(=O)Cc3ccccc3)CC2)cnn1-c1cc(F)cc(F)c1` [96Z], the values for the IC50 in test [2] and in test [1] were 364 nM and 1550 nM, respectively.

Regarding `Cc1ccc(Cc2c(N3CCN(S(=O)(=O)C(C)C)CC3)cnn(-c3cc(F)cc(F)c3)c2=O)cc1` [119Z], the IC50 is 125 nM in test [2] and 1610 nM in test [1].

With `CCC1(COc2c(N3CCN(S(=O)(=O)Cc4ccc(N)cc4)CC3)cnn(-c3cc(F)cc(F)c3)c2=O)CC1` [186*], the IC50 is 89.3 nM in test [2] and 214 nM in test [1].

`CC(C)NC(=O)N1CCN(c2cnn(-c3cccc(F)c3)c(=O)c2OC2Cc3ccccc3C2)CC1` [197Z]: the IC50 in test [2] is 159 nM; in test [1] it was 3870 nM.

For `O=C(NCc1ccccc1)N1CCN(c2cnn(-c3cccc(Cl)c3)c(=O)c2OC2CCCC2)CC1` [204Z], the IC50 in test [2] is 203000 nM; in test [1], 68900 nM.

For the molecule `O=c1c(OC2CCCC2)c(N2CCN(Cc3c(Cl)cccc3Cl)CC2)cnn1-c1cccc(Cl)c1` [208Z], the IC50 in test [2] is 206 nM; in test [1], 2620 nM.

As for `CCOCCOc1c(N2CCN(Cc3c(Cl)cccc3Cl)CC2)cnn(-c2cc(Cl)cc(Cl)c2)c1=O` [214Z], the figures for the IC50 in test [2] and in test [1] were 1310 nM and 489 nM, respectively.

As for `CCOCCOc1c(N2CCN(C(=O)CC)CC2)cnn(-c2cccc(C)c2)c1=O` [227Z], the IC50 in test [2] and in test [1] was 367000 nM in each case.

With `CCCCCCCCCC(=O)N1CCN(c2cnn(-c3ccccc3)c(=O)c2OCCCCCCC)CC1` [232Z], the figures for the IC50 in test [2] and in test [1] were 3810 nM and 15600 nM, respectively.

In the case of `CCOCCOc1c(N2CCN(c3ncc([N+](=O)[O-])s3)CC2)cnn(-c2cccc(C)c2)c1=O` [240Z], the IC50 in test [2] and in test [1] was 201000 nM throughout.

On to `CCCCCCCOc1c(N2CCN(S(=O)(=O)CC)CC2)cnn(-c2ccccc2)c1=O` [244Z], for which the results for the IC50 in test [2] and in test [1] were 201 nM and 886 nM, respectively.

For `CC1(COc2c(N3CCN(S(=O)(=O)Cc4ccc5ocnc5c4)CC3)cnn(-c3cc(F)cc(F)c3)c2=O)CC1` [270*], the IC50 in test [2] was 52.5 nM; in test [1], 35 nM.

As for `CC1(COc2c(N3CCN(S(=O)(=O)Cc4ccc(I)cc4)CC3)cnn(-c3cccc(Cl)c3)c2=O)CC1` [312*, 2-(3-chlorophenyl)-5-(4-(4-iodobenzylsulfonyl)piperazin-1-yl)-4-((1-methylcyclopropyl)methoxy)pyridazin-3(2H)-one], the IC50 in test [2] was 91.6 nM; in test [1], 107 nM.

For `CC(C)S(=O)(=O)N1CCN(c2cnn(-c3cccc(F)c3)c(=O)c2OC2CCCCC2)CC1` [402Z], the IC50 is 153 nM in test [2] and 794 nM in test [1].
